“And” between values parts separate entries of the source, which are not always exact repeats. Equal entries are not always repeated.
Assays:
[1] = system: B16.F10 cells; experiment: CellTiter-Glo Luminescent Cell Viability Assay (cytotoxicity of nanoparticles); assay type: cell-based, mouse; conditions: Mus musculus; B16.F10 cells; 24, 48 and 72 hours of incubation tested, time of the IC50 not stated
Description: The Cytotoxicity of nanoparticles formed from polymer drug conjugates was evaluated using the following protocol. […] B16.F10 cells, grown to 85-90% confluency in 150 cm^2 flasks (passage<30), were resuspended in media (MEM-alpha, 10% HI-FBS, 1× antibiotic-antimycotic) and added to 96-well opaque-clear bottom plates at a concentration of 1500 cells/well in 200 μL/well. The cells were incubated at 37° C. with 5% CO2 for 24 hours. The following day, serial dilutions of 2×concentrated particles and 2× concentrated free drug were made in 12-well reservoirs with media to specified concentrations. The media in the plates was replaced with 100 μL of fresh media and 100 μL of the corresponding serially diluted drug. Three sets of plates were prepared with duplicate treatments. Following 24, 48 and 72 hours of incubation at 37° C. with 5% CO2, the media in the plates was replaced with 100 μL of fresh media and […] of CTG solution, and then incubated for 5 minutes on a plate shaker at room temperature set to 450 rpm and allowed to rest for 15 minutes. Viable cells were measured by luminescence using a microtiter plate reader. The data was plotted as % viability vs. concentration and standardized to untreated cells.

[2] = system: HCT-116 colon xenograft model; experiment: In vivo efficacy in HCT-116 colon xenograft model; parameters: species or system mouse; conditions: 30 mg/kg IV; male CD-1 nude mice
Description: HCT-116 cells were grown in culture to confluency in McCoy's 5a medium containing 10% FBS and 1% penicillin/streptomycin and then resuspended in McCoy's 5a (passage 4).
The treatments were administered 1V into the tail vein at the respective dose volumes (refer to previous paragraph), beginning on post-implantation Day 13, when the mean tumor volume was 131 mm3.

[3] = system: SK-OV-3 ovarian human xenograft model; experiment: In vivo efficacy in SK-OV-3 ovarian human xenograft model; parameters: species or system mouse
Description: SK-OV-3 cells were grown in culture to confluency in RPMI medium containing 10% FBS and 1% penicillin/streptomycin and then resuspended in RPMI (passage 4) for implantation into mice. […]

[4] = system: normal male C57BL/6 non-tumor-bearing mice; experiment: Tolerability in normal non-tumor-bearing mice (body weight, CBC, serum chemistry, ataxia, sciatic nerve histology); assay type: in vivo, mouse; conditions: for Lymphocyte mean / Neutrophil mean / WBC # mean: blood Day 14; for mice developing ataxia / Ataxia (%): n=5/group; for Ataxia (%): intravenous q7d×2, male C57BL/6 mice, to Day 14
Description: Treatments were administered intravenously on a q7d×2 schedule, i.e., two treatments seven days apart (the first treatment was on Day one). The study ended on Day 14, six days after the 2nd treatment. Blood was collected for complete blood count (CBC) and serum chemistry. Leg muscles were collected so that nerve degeneration could be assessed from the sciatic nerve.

[5] = system: MDA-MB-435 melanoma human xenograft model; experiment: In vivo efficacy in MDA-MB-435 melanoma human xenograft model; parameters: species or system mouse
Description: MDA-MB-435 cells were grown in culture to confluency in RPMI medium containing 10% FBS and 1% penicillin/streptomycin and then resuspended in RPMI (passage 4) for implantation into mice. A volume of 0.1 mL containing 4.0×10^6 cells MDA-MB-435 cells were implanted into the mammary gland of female CD-1 nude mice on Day 1.

[6] = system: B16.F10 murine melanoma model; experiment: Efficacy and tolerability of PEGylated docetaxel-5050 PLGA-O-acetyl nanoparticles in B16.F10 murine melanoma model; assay type: in vivo, mouse
Description: Refer to table for detailed description of formulations.
Tumor volume was calculated with the following equation: (width×width×length)/2 mm3.

[7] = q4dq3dx3, 15 mg/kg IV, male C57BL/6 mice
[8] = q7d schedule, three times once every week, 15 mg/kg

## CC(=O)O[C@@]12CO[C@@H]1C[C@H](O)[C@@]1(C)C(=O)[C@H](O)C3=C(C)[C@@H](OC(=O)[C@H](O)[C@@H](NC(=O)OC(C)(C)C)c4ccccc4)C[C@@](O)([C@@H](OC(=O)c4ccccc4)[C@H]21)C3(C)C [Free docetaxel, docetaxel]
[1]
  IC50: 130 nM
[2]
  Maximum body weight loss: 14%
[3]; 30 mg/kg weekly×2
  Maximum body weight loss: 13%
  ataxia: did not cause ataxia
[3]; 60 mg/kg IV Days 51 and 58 (weekly×2), female CD-1 nude mice
  body weight loss: greater than 20%
[3]; 60 mg/kg weekly×2, four days after the second treatment
  ataxia: observed in all the mice
[4]; 30 mg/kg IV q7d×2
  body weight above initial on Day 14: 3%
  Lymphocyte mean: 4350 cells/μL
  Neutrophil mean: 556 cells/μL
  WBC # mean: 5.1 ×1000 cells/μL
  mice developing ataxia: no mice
[4]; 45 mg/kg IV q7d×2
  body weight above initial on Day 14: 2%
  Lymphocyte mean: 6780 cells/μL
  Neutrophil mean: 752 cells/μL
  WBC # mean: 7.8 ×1000 cells/μL
[4]; 45 mg/kg IV q7d×2, Day 14
  mice developing ataxia: One mouse
[4]; 60 mg/kg IV q7d×2, Day 14
  body weight lost after the second treatment, by the end of the study: 19%
[4]; 60 mg/kg IV q7d×2
  Lymphocyte mean: 5590 cells/μL
  Neutrophil mean: 470 cells/μL
  WBC # mean: 6.2 ×1000 cells/μL
  mice developing ataxia: Five out of five mice
[4]; dose 30 mg/kg
  Ataxia (%): 0%
[4]; dose 45 mg/kg
  Ataxia (%): 20%
[4]; dose 60 mg/kg
  Ataxia (%): 100%
[4]; doses up to 60 mg/kg
  serum chemistry parameters: did not affect any serum chemistry parameter
[5]; 15 mg/kg IV Days 21 and 28 (weekly×2)
  Maximum body weight loss: 10%
[5]; 30 mg/kg IV Days 21 and 28 (weekly×2)
  Maximum body weight loss: 14%
[5]; 30 mg/kg weekly×2
  ataxia: did not cause ataxia
[5]; 60 mg/kg IV Days 21 and 28 (weekly×2), female CD-1 nude mice
  body weight loss: greater than 20%
[5]; 60 mg/kg weekly×2, listed as docetaxel
  ataxia: developed ataxia
[5]; 60 mg/kg weekly×2, listed as free docetaxel
  ataxia: Ataxia was observed
[6]; q3dq4dx3, 15 mg/kg IV, male C57BL/6 mice, listed as Docetaxel
  Maximum body weight loss: 12% and 11%
[6]; q3dq4dx3, 15 mg/kg IV, male C57BL/6 mice, listed as docetaxel
  Maximum body weight loss: 12% and 11%
[6]; [7]
  Maximum body weight loss: 11%
  Tumor growth delay (TGD): 11 days
  Tumor growth inhibition (TGI): 90%
[6]; q7dx3, 30 mg/kg IV, male C57BL/6 mice
  Maximum body weight loss: 11%
[6]; q14dx2, 60 mg/kg IV, male C57BL/6 mice, listed as Docetaxel
  Maximum body weight loss: 0%
[6]; q14dx2, 60 mg/kg IV, male C57BL/6 mice, listed as docetaxel
  Maximum body weight loss: did not show any body weight loss
[6]; [8]
  Maximum body weight loss: 11%
  TGD: 11 days

Source: patent US20110237686A1, “FORMULATIONS AND METHODS OF USE” (Cerulean Pharma Inc, priority 2010, published 2011)
